{"source": "patent US4997825A", "about": "“Synergistic treatment method” (Eli Lilly and Company, priority 1989, dated 1991)", "key": {"[1]": {"test_system": "growth hormone", "conditions": "steers, finishing diet with 10 mg/head/day; cited from earlier work"}, "[2]": {"test_system": "growth hormone", "conditions": "rats, Rhesus monkeys, rabbits, sheep, cattle and chickens, as well as humans; cited from earlier work"}, "[3]": {"test_system": "growth hormone", "conditions": "intravenously, normal men; cited from earlier work"}, "[4]": {"test_system": "Plasma GH", "experiment": "Plasma growth hormone in wethers during 5-day continuous infusion of hGRF (acid form) through a jugular cannula, with or without estradiol implant; radioimmunological analysis", "format": "in vivo", "conditions": "no hGRF (Control), estradiol implant about 25 mcg/day", "procedure": "Wethers weighing about 32 kg were confined in metabolism crates for about 7 days before the experiment began. […] Two days before the start of the treatment schedule, a Silastic (Dow Corning Corporation) cannula was inserted in each jugular vein of each wether. Four animals, two implanted and two unimplanted, were assigned to three GRF treatments, 1.5 mg/day, 0.33 mg/day and control. The GRF which was used was hGRF in the acid form, synthesized by solid phase synthetic methodology according to the general procedure of Merrifield et al., Biochemistry 21, 5020 (1982).\nGRF was infused through one of the cannulae continuously for 5 days to the treated wethers, using a Harvard peristaltic pump. The GRF was diluted in physiological saline to a concentration such that the actual delivery rate was 0.5 ml of infusate per minute.\nSix blood samples were collected from each wether each day, beginning 1 day before the start of infusion and continuing 1 day after the end of it. Two samples were obtained within 1 hour just before the beginning of each 1-hour ad libitum meal, and 1 sample was taken at the end of each meal. The animals received two 1-hour meals daily at 12 hour intervals. Additional blood samples were taken 1 hour before, just before, 10 minutes after and 60 minutes after the start of infusion. At the end of the infusion period, additional blood samples were obtained at 10, 20, 30 and 60 minutes after the termination of infusion.\nThe plasma was separated from the other components of the blood samples, and was analyzed for growth hormone by a standard radioimmunological procedure.\nThe table below reports the growth hormone levels in the animals, reported as means of all of the analyses in the stated time period. The data from animals which were implanted with estradiol are indicated by \"+\" in the column headed Estradiol."}, "[5]": {"test_system": "Plasma GH", "experiment": "Plasma growth hormone in lambs during subcutaneous infusion of hGRF analog (serine at position 27), with or without estradiol implant", "format": "in vivo", "conditions": "no hGRF (Control)", "procedure": "This experiment was carried out substantially according to the scheme of Example 1. In this test, the GRF was a hGRF analog having serine in place of methionine at position 27; the GRF was prepared by recombinant methods. Four rates of hGRF were used, 0.75, 1.5 and 3.0 mg/day, and controls.\nThe hGRF was infused through a subcutaneous Silastic cannula using an IVAC model 630 pump (IVAC Corporation, San Diego). The hGRF was diluted in physiological saline to provide concentrations such that 48 ml/day of each infusate could be supplied to each animal."}, "[6]": {"test_system": "growth hormone concentration", "conditions": "large doses, normal men, measured fasting; cited from earlier work"}}, "note": "Read-outs that look alike come from different tables or passages of the source. No end group written: not given here.", "data": [{"compound": "CC/C(=C(/CC)c1ccc(O)cc1)c1ccc(O)cc1", "note": "[stilbestrol]", "values": [{"measurement": "growth hormone", "setting": "[1]", "result": "increased growth hormone"}]}, {"compound": "endogenous human GRF: GRF naturally produced by humans; peptide of 43 or 44 amino acids (YADAIFTNSYRKVLGQLSARKLLQDIMSRQQGESNQERGARARL; ends and bridges not checked; UniProt P01286 32-75, looked up)", "values": [{"measurement": "GRF activity across species", "setting": "[2]", "result": "active"}]}, {"compound": "hGRF40 acid: human GRF analog having 40 amino acids and a free acid terminal (YADAIFTNSYRKVLGQLSARKLLQDIMSRQQGESNQERGA-OH; UniProt P01286 32-71, looked up, fragment)", "values": [{"measurement": "GRF activity across species", "setting": "[2]", "result": "active"}]}, {"compound": "C#C[C@]1(O)CC[C@H]2[C@@H]3CCc4cc(O)ccc4[C@H]3CC[C@@]21C", "note": "[Ethinyl estradiol]", "values": [{"measurement": "growth hormone", "setting": "[3]", "result": "significant increase in growth hormone in 5 of 6 patients"}]}, {"compound": "C[C@]12CC[C@@H]3c4ccc(O)cc4CC[C@H]3[C@@H]1CC[C@@H]2O", "note": "[Estradiol, estradiol]", "values": [{"measurement": "Plasma GH, Infusion Period Day 1", "setting": "[4]", "result": 3.3, "unit": "ng/mL"}, {"measurement": "Plasma GH, Infusion Period Day 2", "setting": "[4]", "result": 4.3, "unit": "ng/mL"}, {"measurement": "Plasma GH, Infusion Period Day 3", "setting": "[4]", "result": 2.9, "unit": "ng/mL"}, {"measurement": "Plasma GH, Infusion Period Day 4", "setting": "[4]", "result": 5.2, "unit": "ng/mL"}, {"measurement": "Plasma GH, Infusion Period Day 5", "setting": "[4]", "result": 4.2, "unit": "ng/mL"}, {"measurement": "Plasma GH, Posttreatment", "setting": "[4]; day after infusion", "result": 2.4, "unit": "ng/mL"}, {"measurement": "Plasma GH, Pretreatment", "setting": "[4]; mean of analyses, day before infusion", "result": 2.8, "unit": "ng/mL"}, {"measurement": "Plasma GH, Infusion Period Day 1", "setting": "[5]", "result": 5.9, "unit": "ng/mL"}, {"measurement": "Plasma GH, Infusion Period Day 2", "setting": "[5]", "result": 10.0, "unit": "ng/mL"}, {"measurement": "Plasma GH, Infusion Period Day 3", "setting": "[5]", "result": 6.2, "unit": "ng/mL"}, {"measurement": "Plasma GH, Infusion Period Day 5", "setting": "[5]", "result": 8.8, "unit": "ng/mL"}, {"measurement": "Plasma GH, Posttreatment", "setting": "[5]", "result": 8.7, "unit": "ng/mL"}, {"measurement": "Plasma GH, Pretreatment", "setting": "[5]", "result": 11.6, "unit": "ng/mL"}]}, {"compound": "CC/C(=C(/CC)c1ccc(O)cc1)c1ccc(O)cc1", "note": "[diethylstilbestrol]", "values": [{"measurement": "growth hormone concentration", "setting": "[6]", "result": "increased growth hormone concentration"}]}]}
